Test results: patent publication US4137318A, “N-(phenylalkylamino-alkyl)-dihydroisoquinolinones, pharmaceutical compositions and methods employing them” (Boehringer Ingelheim GmbH, priority 1976, dated 1979)

Tests used:
heart rate = experiment: Bradycardiac test: effect of test compound on the heart rate of anesthetized cats; assay type: in vivo
Procedure: The effect of the test compound on the heart rate was tested at various dosage levels on 2-4 cats of both sexes per dose. The average body weight of the cats was 2.5-3.5 kg. For this purpose the animals were anesthetized with nembutal (30 mgm/kg i.p.) and chloralose-urethane (40 mgm/ml chloralose + 200 mgm/ml urethane as required). The test compound in aqueous solution was injected into the Vena saphena (i.v.) or duodenum (i.p.).
The heart rate was registered before and after administration of the test compound on a Grass-polygraph by means of a Grass-tachograph from the electrocardiogram (precordial lead).

[1] = LD50 in mice, i.v., observation time of 14 days; conditions: mouse, in vivo, iv, observation time of 14 days
Source text: Additionally, it should be noted that at all dosage levels the test compounds were tolerated very well and produced no toxic side-effects.

## COc1ccc(CCN(C)CCCN2CCc3cc(OC)c(OC)cc3C2=O)cc1OC.Cl [A, 1-[6,7-dimethoxy-3,4-dihydro-2H-isoquinolin-1-one-2-yl]-3-[N-methyl-N-(2-(3,4-dimethoxy-phenyl)-ethyl)-amino] propane hydrochloride]
Heart rate; 0.1 mgm/kg i.v.
  Duration of effective action: 30 min
Heart rate; 0.3 mgm/kg i.v.
  Duration of effective action: 30 min
Heart rate; 1.0 mgm/kg i.v.
  Duration of effective action: 50 min
Heart rate; 3.0 mgm/kg i.d.
  Duration of effective action: 60 min
Heart rate; 10.0 mgm/kg i.v.
  Duration of effective action: 70 min
Heart rate; 30.0 mgm/kg i.d.
  Duration of effective action: 60 min
[1]
  LD50 at 336 h: 53 mg/kg

## COc1ccc(CCNCCCN2CCc3cc(OC)c(OC)cc3C2=O)cc1OC.Cl [B, 1-[6,7-dimethoxy-3,4-dihydro-2H-isoquinolin-1-one-2-yl]-3-[N-(2-(3,4-dimethoxy-phenyl)-ethyl)-amino] propane hydrochloride]
Heart rate; 0.3 mgm/kg i.v.
  Duration of effective action: 22 min
Heart rate; 1.0 mgm/kg i.v.
  Duration of effective action: 17 min
Heart rate; 2.0 mgm/kg i.v.
  Duration of effective action: 43 min

## COc1ccc(CCN(C)CCCN2CC(C)(C)c3cc(OC)c(OC)cc3C2=O)cc1OC.Cl [C, 1-[4,4-dimethyl-6,7-dimethoxy-3,4-dihydro-2H-isoquinolin-1-one-2-yl]-3-[N-methyl-N-(2-(3,4-dimethoxy-phenyl)-ethyl)-amino]-propane hydrochloride]
Heart rate; 0.3 mgm/kg i.v.
  Duration of effective action: 8 min
Heart rate; 1.0 mgm/kg i.v.
  Duration of effective action: 11 min
Heart rate; 3.0 mgm/kg i.v.
  Duration of effective action: 18 min

## COc1ccc(CCNCCCN2CC(C)(C)c3cc(OC)c(OC)cc3C2=O)cc1OC.Cl [D, 1-[4,4-dimethyl-6,7-dimethoxy-3,4-dihydro-2H-isoquinolin-1-one-2-yl]-3-[N-(2-(3,4-dimethoxy-phenyl)-ethyl)-amino]-propane hydrochloride]
Heart rate; 1.0 mgm/kg i.v.
  Duration of effective action: 6 min
Heart rate; 3.0 mgm/kg i.v.
  Duration of effective action: 16 min

## COc1ccc(CCN(C)CCCN2CCCc3cc(OC)c(OC)cc3C2=O)cc1OC.Cl [E, 1-[7,8-dimethoxy-1,2,3,4-tetrahydro-5H-2-benzazepin-1-one-2-yl]-3-[N-methyl-N-(2-(3,4-dimethoxy-phenyl)-ethyl)-amino]-propane hydrochloride]
Heart rate; 1.0 mgm/kg i.v.
  Duration of effective action: 30 min
Heart rate; 2.0 mgm/kg i.v.
  Duration of effective action: 20 min
